Values of other authors as cited in US6025374A, “Azetidine, pyrrolidine and piperidine derivatives as 5HT1 receptor agonists” (Merck Sharp & Dohme, Ltd., priority 1994, dated 2000).

Conditions: therapeutic doses; literature

Compound: CNS(=O)(=O)Cc1ccc2[nH]cc(CCN(C)C)c2c1 [sumatriptan]
- adverse events in humans: certain adverse cardiovascular events
